Calls of active or inactive are those of the source. The calls are words filed in the database; no cut-off is given here.

In data set [1] the test system is MCF7. As to the kind of experiment: Cytotoxicity against human MCF7 cells assessed as reduction in cell viability at 0.1 to 100 uM incubated for 24 hrs by MTT assay. Type of data set: functional, cell-based. (In general: Tetrazolium assays rely on reduction of a dye to a coloured formazan, in cell work by metabolically active cells.)
The test system of data set [2] is PC-3. As to the kind of experiment: Cytotoxicity against human PC3 cells assessed as reduction in cell viability at 0.1 to 100 uM incubated for 24 hrs by MTT assay. It is filed as functional, cell-based.
The nature of data set [3]: Induction of singlet production in methanol in presence of potassium superoxide using chemiluminescent substrate incubated for 30 mins in N2-bubbling by spectrofluorimetry relative to control. Type of data set: functional.
Data set [4] is described as follows: Induction of singlet oxygen production in methanol assessed as ABDA florescence quenching by spectrofluorimetry. It is filed as functional.
Data set [5] can be described thus: Induction of singlet production in acetate buffer using chemiluminescent substrate by spectrofluorimetry. Type of data set: functional.
Data set [6] in a line: Induction of singlet oxygen production in acetate buffer assessed as ABDA florescence quenching by spectrofluorimetry. Type of data set: functional.
The subject of data set [7] is PC-3. The data set can be described thus: Cytotoxicity against human PC3 cells assessed as reduction in cell viability at >75 uM incubated for 24 hrs by MTT assay relative to control. It is filed as functional.
Data set [8] in a line: Induction of singlet production in methanol in presence of potassium superoxide using chemiluminescent substrate incubated for 30 mins in liquid nitrogen temperature by spectrofluorimetry. Type of data set: functional.
Data set [9] in a line: Induction of singlet oxygen production in methanol assessed as ABDA florescence quenching in presence of potassium superoxide by spectrofluorimetry. Type of data set: functional.
Data set [10] is described as follows: Induction of singlet production in methanol in presence of potassium superoxide using chemiluminescent substrate by spectrofluorimetry. It is filed as functional.
For the next data set, the system named is MCF-10A. As to the kind of experiment: Cytotoxicity against human MCF10A cells assessed as reduction in cell viability at 0.1 to 100 uM incubated for 24 hrs by MTT assay. It is filed as cell-based.
For data set [11], the system named is MCF7. The data set can be described thus: Cytotoxicity against human MCF7 cells assessed as reduction in cell viability at 0.1 uM incubated for 24 hrs by MTT assay. It is filed as functional, cell-based.

Take `O=c1c(Cc2ccc(O)cc2)nc2c(Cc3ccccc3)[nH]c(-c3ccc(O)cc3)cn1-2`: the result (in the data set with MCF7 [1]; in data set [3]; in [4]) was inactive. Besides, the outcome (in the data set on PC-3 [2]; in data set [5]) was Active.

For `CC(=O)Nc1cnc(Br)cn1`, the outcome in data set [6] and in [5] was Active.

Take `CC/C(=C(\c1ccccc1)c1ccc(OCCN(C)C)cc1)c1ccccc1`: in the data set with MCF7 [1], the result was Active.

`CN(C)C(=N)NC(=N)N`: the outcome in the data set with PC-3 [2] was Active.

For `Cc1nc2c[nH]c(-c3ccc(Br)cc3)cn-2c1=O`, the results for the Activity with PC-3 [7] and in the data set with MCF-10A were above 50% and “Non-Toxic”, respectively. Moreover, the outcome (in data set [8]; in [9]; in data set [10]; in data set [3]; with MCF7 [11]) was Active.

These data come from ChEMBL document CHEMBL4406844, “Single-molecule chemiluminescent photosensitizer for a self-activating and tumor-selective photodynamic therapy of cancer” (Eur J Med Chem, 2019).
